Reference: article PMC10636171 (Cell Death & Disease, 2023)
pIC50: −log10 of the molar value.

How the values were obtained:
ASPC1 [1] = test: CCK8 antiproliferative assay; format: cell-based; conditions: Homo sapiens; ASPC1, CCK8, 72 h; read-out: IC50, cell proliferation
Method: (§1) For cytotoxicity assay, the cells grown in the logarithmic phase were seeded into 96-well plates (7 × 10^3 cells/well) for 24 h, then exposed to different concentrations (10, 5, 1, 0.1, 0.01 and 0.001 μM) of the test compounds for 72 h. After attached cells were incubated with CCK8 (Sigma, USA) for another 1–4 h. Then the absorbance at 450 nm was measured using a multifunction microplate reader (Molecular Devices, Flex Station 3), and each experiment was performed at least in triplicate.

HS746T = test: CCK8 antiproliferative assay; format: cell-based; conditions: Homo sapiens; HS746T, CCK8, 72 h; read-out: IC50, cell proliferation
Method: as §1

MHCC97H [2] = test: CCK8 antiproliferative assay; format: cell-based; conditions: Homo sapiens, CCK-8, 72 h, read-out: IC50, cell proliferation
Method: as §1

MKN45 = test: CCK8 antiproliferative assay; format: cell-based; conditions: Homo sapiens, MKN-45; MKN45, CCK-8, 72 h; read-out: IC50, cell proliferation
Method: as §1

MHCC97H xenograft tumor = MHCC97H xenograft tumor model; format: in vivo, BALB/c nude mice; conditions: ig, calculated through tumor weight
Method: Male BALB/c nude mice (5-week old, 18–20 g) were purchased from Beijing Vital River Laboratory Animal Technology (Beijing Vital River LaboratoryAnimal Technology Co., Ltd., Beijing,China) and allowed to acclimate for 1 week, maintained at constant room temperature and fed a standard rodent chow and water. 1 × 10^7 cells/mL cancer cells grown in logarithmic phase were harvested and resuspended in FBS-free 1640 medium. Then, 100 μL of the cell suspension was subcutaneously injected into the right flank of each mouse. When the tumour volume was reached about 600–800 mm^3, it was removed, minced into small pieces of equal volume (2 × 2 × 2 mm^3), and transplanted subcutaneously into the nude mice. When the tumour volume was reached about 200–400 mm^3, the xenograft tumour-bearing nude mice were randomly allocated to five groups (vehicle-treated, 1D228-2mgd-treated, 1D228-4mgd-treated […] Tepotinib-treated groups, with 6 or 8 mice (The number of mice were determined according to previous experience on xenograft tumor models) per group. Each group was dosed by intragastric administration (ig) for 7–14 days. Tumour volume and body weights were recorded every day after drug treatment. At the end of the observation period, the animals were euthanized by cervical dislocation and the tumour bulks were peeled off conformed to the Guide for the Care and Use of Laboratory Animals as published by the US National Institutes of Health (NIH Publication No. 85-23, revised 1996) and approved by the Institutional Ethics Review Board of Binzhou Medical University. There was no blinding was done during the animal experiment. No animals were excluded from the analysis.

ASPC1 [3] = test: Transwell migration assay; format: cell-based, human
Method: (§2) Migration assay was performed using an 8 μm-pore Boyden chamber (24-well, #353097, Corning, NY, USA). Treated with 1, 5, and 10 nM 1D228 for 48 h. A total of 5 × 10^4 cells were seeded in serum-free medium in the top chamber and allowed to migrate for 48 h toward the bottom chamber containing 10% fetal bovine serum medium. Cells were fixed and permeabilized with cold 70% ethanol and methanol and stained with 0.4% crystal violet. The average number of migrating cells was evaluated from at least four independent microscope fields.

MHCC97H [4] = test: Transwell migration assay; format: cell-based, human; conditions: transwell, 1, 5 and 10 nM
Method: as §2

[5] = system: phosphorylated c-Met in MHCC97H cells; test: Western blot of phosphorylated c-Met; format: cell-based, human; conditions: concentration as low as 1 nM
Method: (§3) Proteins (25–50 ug/lane) were separated on a 4–12% Bis-Tris NuPAGE gel and blotted onto a PVDF membrane (FluoroTrans; VWR). […] Horseradish peroxidase-conjugated secondary antibodies were from Cell Signaling. Proteins were visualized by enhanced chemiluminescence (Millipore) on ChemiDoc camera (Bio-Rad) and protein expression levels were quantified using the lmageJ software. Full anduncropped western blots are presented in Supplemental File.

[6] = system: phosphorylated c-Met in MKN45 cells; test: Western blot of phosphorylated c-Met; format: cell-based, human; conditions: MKN45, concentration as low as 1 nM
Method: as §3

[2H][C@@](C)(c1cccc(-c2ncc(OCC3CCN(C)CC3)cn2)c1)n1nc(-c2cccc(C#N)c2)ccc1=O [1D228]
pIC50 (ASPC1 [1]): 5.88
pIC50 (HS746T): 6.05
pIC50 (MHCC97H [2]): 8.37
pIC50 (MKN45): 9.00
Tumor growth inhibition (TGI) (MHCC97H xenograft tumor; 2 mg/kg): 81.2%
Tumor growth inhibition (TGI) (MHCC97H xenograft tumor; 4 mg/kg): 93.4%
Tumor growth inhibition (TGI) (MHCC97H xenograft tumor; 8 mg/kg): 98.2%
Cells blocked from migrating (ASPC1 [3]): 50–80%
Cells blocked from migrating (MHCC97H [4]): 50–80%
Phosphorylated c-Met level [5]: significant reduction
Phosphorylated c-Met level [6]: significant reduction
